Source: article PMC9259591, “Irigenin, a novel lead from Iris confusa for management of Helicobacter pylori infection with selective COX-2 and HpIMPDH inhibitory potential” (Scientific Reports, 2022)
≈ marks a conversion by molar mass, not a printed value. Where “and” joins values, the source holds several entries; their conditions need not be identical. Identical values can stand only once. Like-named read-outs stand apart in the source and are kept apart here.

Experiments:
H. pylori ATCC 700392 = test: anti-Helicobacter pylori activity, microwell dilution method with MTT; assay type: cell-based; conditions: for MIC: read-out: MIC (H. pylori)
Protocol: The anti-Helicobacter pylori activity of the PF and NPF as well as the isolated compounds was evaluated against H. pylori ATCC 700392 (type strain, obtained from the American Type Culture Collection unit (ATCC), using microwell dilution method and clarithromycin as standard drug[37]. The detailed procedures were described in the supplementary file.
The anti-Helicobacter pylori activity of the PF and NPF as well as the isolated compounds was evaluated against H. pylori ATCC 700392 (a type strain, obtained from the American Type Culture Collection unit (ATCC), using microwell dilution method and clarithromycin as standard drug ^1. The tested samples were prepared in dimethyl sulfoxide and successive ten twofold dilutions (125- 0.24 µg/mL) were carried out in a 96-well plate. Each microplate well included forty μL of Brain Heart Infusion growth medium and 10% fetal bovine serum (FBS), ten μL of inoculum and fifty μL of the tested sample. The plates were incubated for 3 days, in 5% oxygen, 10% carbon dioxide, 85 % nitrogen atmosphere at 37°C. Forty μL of 3- (4, 5-dimethyl-thiazol-2-yl)- 2,5-diphenyl-tetrazolium bromide (MTT) at a final concentration of 0.5 mg/mL freshly prepared in H2O was added to each well and incubated for 30 min. The bacteria were biologically active when change to purple color was observed ^1. While no change in MTT color indicated inhibition. Solvent control (DMSO) and the standard antibiotic (clarithromycin) were used as negative and positive controls, respectively. The H. pylori inhibition % was calculated using the given formula:
% Inhibition = Abs control – Abs sample × 100 /Abs control.

human recombinant COX-2 = molecular target: T1, human recombinant COX-2 (Homo sapiens, UniProt P35354); test: COX-2 inhibitory activity, colourimetric COX inhibitor screening assay kit; assay type: biochemical
T1 construct: purchased
T1 sequence (P35354 18-604): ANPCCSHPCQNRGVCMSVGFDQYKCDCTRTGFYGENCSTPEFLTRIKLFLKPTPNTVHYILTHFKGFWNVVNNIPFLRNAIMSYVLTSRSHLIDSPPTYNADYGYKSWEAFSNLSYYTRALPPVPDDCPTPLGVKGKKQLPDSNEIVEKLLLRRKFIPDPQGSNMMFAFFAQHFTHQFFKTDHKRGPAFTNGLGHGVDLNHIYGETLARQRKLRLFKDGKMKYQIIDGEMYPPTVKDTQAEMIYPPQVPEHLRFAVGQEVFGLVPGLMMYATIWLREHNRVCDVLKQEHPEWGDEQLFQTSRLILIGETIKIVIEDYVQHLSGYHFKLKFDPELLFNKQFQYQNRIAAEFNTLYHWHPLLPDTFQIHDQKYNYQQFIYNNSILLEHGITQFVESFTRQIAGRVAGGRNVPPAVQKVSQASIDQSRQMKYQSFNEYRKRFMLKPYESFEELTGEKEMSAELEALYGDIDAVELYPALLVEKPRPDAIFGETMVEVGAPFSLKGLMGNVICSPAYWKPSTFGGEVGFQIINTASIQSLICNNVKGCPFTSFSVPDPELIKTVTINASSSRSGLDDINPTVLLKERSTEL
Protocol: (§1) The inhibitory COX activity was assayed colourimetrically by examining the inhibition of the ovine COX-1 and human recombinant COX-2 enzymes as described by George et al.[38], using a COX inhibitor screening assay kit. The detailed procedures were described in the supplementary file.
(§2) The inhibitory COX activity was assayed colourimetrically by examining the inhibition of the ovine COX-1 and human recombinant COX-2 enzymes as described by George et al. ^2, using a COX inhibitory screening assay kit. This assay determines the COX peroxidase activity by monitoring the appearance of N,N,N',N'-tetramethyl-p-phenylenediamine (TMPD). Assay buffer (150 μL 0.1 M Tris–HCl pH 8.0), 10 μL heme and 10μL enzyme (COX-1 or COX-2) were added in each well. Ten μL of each tested sample concentration was added to each well and incubated for 15 minutes at 37°C. After incubation, 20 μL of TMPD was added to each well. For initiating the reaction, 10 μL 10 mM arachidonic acid was added and the plates were further incubated for another 2 minutes at 37°C. For terminating the reaction, 50 μL 1 N HCl and saturated stannous chloride were added.
(§3) Reaction mixture containing assay buffer and heme acted as the blank and a mixture with either COX-1 or COX-2 assay buffer and heme acted as the 100% initial activity (IA). […] The absorbances of oxidized TMPD (blue colour) were read in ELISA plate reader at 590 nm. The % inhibition was calculated using the following formula:
(§4) COX % Inhibition= [(100%IA−Inhibitor)/ 100% IA x 100]. Where, IA: 100% initial activity.
(§5) The concentration at which the tested sample produces 50% inhibition of COX-1 and/or COX-2 (IC50) was determined. The selectivity index (SI) was calculated also as IC50 (COX-1)/ (COX-2).

ovine COX-1 = molecular target: T2, ovine COX-1 (Ovis aries, UniProt P05979); test: COX-1 inhibitory activity, colourimetric COX inhibitor screening assay kit; assay type: biochemical; conditions: ovine COX-1; read-out: IC50 (COX-1)
T2 construct: purchased
T2 sequence (P05979 25-600): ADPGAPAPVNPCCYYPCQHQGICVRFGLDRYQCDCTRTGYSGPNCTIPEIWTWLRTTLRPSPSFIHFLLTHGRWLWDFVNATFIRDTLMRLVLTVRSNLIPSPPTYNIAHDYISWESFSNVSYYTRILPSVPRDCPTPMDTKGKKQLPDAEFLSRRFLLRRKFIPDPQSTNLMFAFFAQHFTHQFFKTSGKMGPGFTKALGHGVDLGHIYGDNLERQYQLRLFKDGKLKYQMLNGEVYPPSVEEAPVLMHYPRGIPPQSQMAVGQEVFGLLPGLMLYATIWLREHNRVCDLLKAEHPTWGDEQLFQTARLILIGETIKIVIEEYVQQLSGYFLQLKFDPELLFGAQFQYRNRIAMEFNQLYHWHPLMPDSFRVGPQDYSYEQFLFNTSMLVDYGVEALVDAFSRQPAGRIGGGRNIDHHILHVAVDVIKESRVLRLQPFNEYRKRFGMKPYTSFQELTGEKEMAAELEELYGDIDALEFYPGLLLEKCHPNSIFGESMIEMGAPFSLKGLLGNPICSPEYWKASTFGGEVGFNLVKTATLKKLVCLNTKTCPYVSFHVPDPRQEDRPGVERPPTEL
Protocol: as §1, §2, §3, §4, §5

Compound: COc1cc(-c2coc3cc(O)c(OC)c(O)c3c2=O)cc(O)c1OC [Irigenin (P3), 3′,5,7-trihydroxy-4′,5′,6 trimethoxyisoflavone]
- MIC (H. pylori ATCC 700392; Helicobacter pylori, ATCC700392): 3.9 µg/mL and 10.8 µM
- MIC (H. pylori) (H. pylori ATCC 700392; concentration required for 100% inhibition, H. pylori ATCC 700392, ND = not detected): 3.90 µg/mL (≈ 10.8 µM)
- MIC (H. pylori ATCC 700392; concentration required for 100% inhibition, H. pylori ATCC 700392): 10.82 µM (≈ 3.9 µg/mL)
- IC50 (human recombinant COX-2; human recombinant COX-2): 10.8 ± 0.86 µM
- SI (COX-1/COX-2) (human recombinant COX-2; selectivity index calculated as IC50 (COX-1)/(COX-2)): 3.26
- IC50 (ovine COX-1): 35.2 ± 1.4 µM
